Test results taken from PubChem BioAssay (NCI).
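All cell lines were grown in 96-well plates and treated with compound for 48 hours. GI50 marks 50% less growth. TGI denotes the concentration required for complete inhibition of growth.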

Tests used:
Assay in all cases: DTP human tumour cell line panel, 48 h
SK-MEL-28 melanoma = tested on: SK-MEL-28 melanoma
HL-60(TB) leukemia = tested on: HL-60(TB) leukemia
UACC-62 melanoma = tested on: UACC-62 melanoma
EKVX NSCLC = tested on: EKVX NSCLC
OVCAR-5 ovarian = tested on: OVCAR-5 ovarian
SK-OV-3 ovarian = tested on: SK-OV-3 ovarian
SF-539 CNS = tested on: SF-539 CNS
PC-3 prostate = tested on: PC-3 prostate
SNB-75 CNS = tested on: SNB-75 CNS
MDA-MB-435 = tested on: MDA-MB-435
MOLT-4 leukemia = tested on: MOLT-4 leukemia
SK-MEL-5 melanoma = tested on: SK-MEL-5 melanoma
CCRF-CEM leukemia = tested on: CCRF-CEM leukemia
T-47D breast = tested on: T-47D breast
BT-549 breast = tested on: BT-549 breast
CAKI-1 renal = tested on: CAKI-1 renal
RXF 393 renal = tested on: RXF 393 renal
ACHN renal = tested on: ACHN renal
RPMI-8226 leukemia = tested on: RPMI-8226 leukemia
A498 renal = tested on: A498 renal

C=Cc1c(C)c2cc3nc(cc4[nH]c(cc5nc(cc1[nH]2)C(C)=C5CCC(=O)O)c(CCC(=O)OC)c4C)[C@@]1(C)C3=CC=C(C(=O)OC)[C@H]1C(=O)OC
GI50 (SK-MEL-28 melanoma): 1510 nM
TGI (SK-MEL-28 melanoma): 3000 nM
GI50 (HL-60(TB) leukemia): 2090 nM
TGI (HL-60(TB) leukemia): 5700 nM
GI50 (UACC-62 melanoma): 1370 nM
TGI (UACC-62 melanoma): 2800 nM
GI50 (EKVX NSCLC): 2100 nM
TGI (EKVX NSCLC): 5380 nM
GI50 (OVCAR-5 ovarian): 1590 nM
TGI (OVCAR-5 ovarian): 3070 nM
GI50 (SK-OV-3 ovarian): 1850 nM
TGI (SK-OV-3 ovarian): 3540 nM
GI50 (SF-539 CNS): 1400 nM
TGI (SF-539 CNS): 2700 nM
GI50 (PC-3 prostate): 1430 nM
TGI (PC-3 prostate): 6690 nM
GI50 (SNB-75 CNS): 846 nM
TGI (SNB-75 CNS): 2180 nM
GI50 (MDA-MB-435): 357 nM
TGI (MDA-MB-435): 1340 nM
GI50 (MOLT-4 leukemia): 388 nM
TGI (MOLT-4 leukemia): 1890 nM
GI50 (SK-MEL-5 melanoma): 1700 nM
TGI (SK-MEL-5 melanoma): 3150 nM
GI50 (CCRF-CEM leukemia): 829 nM
TGI (CCRF-CEM leukemia): 3680 nM
GI50 (T-47D breast): 1480 nM
TGI (T-47D breast): 4530 nM
GI50 (BT-549 breast): 1240 nM
TGI (BT-549 breast): 2800 nM
GI50 (CAKI-1 renal): 1170 nM
TGI (CAKI-1 renal): 2390 nM
GI50 (RXF 393 renal): 1970 nM
TGI (RXF 393 renal): 4470 nM
GI50 (ACHN renal): 1340 nM
TGI (ACHN renal): 2620 nM
GI50 (RPMI-8226 leukemia): 1270 nM
TGI (RPMI-8226 leukemia): > 100000 nM
GI50 (A498 renal): 1190 nM
TGI (A498 renal): 2520 nM
